Measured values taken from patent US9321747B2, “Acid addition salt of substituted pyridine compound” (DAIICHI SANKYO COMPANY, LIMITED, priority 2012, dated 2016).
Counter-ions that a name gives are not always drawn.

Target: recombinant human CETP protein (Homo sapiens (Human), UniProt P11597)
Assay: Test of CETP inhibition activity (in vitro, buffer-based)
Assay type: biochemical
Settings: [14C]-cholesteryl ester transfer from reconstituted HDL to acceptor lipoprotein, 37° C., 60 minutes, PBS buffer
Method: Test of CETP Inhibition Activity (In Vitro, Buffer-Based)
(1) Preparation of Reconstituted HDL
Cholesterol (1.125 μmol), phosphatidyl choline (4.5 μmol) and [^14C]-labeled cholesteryl ester (2.0 μCi; 40 μl) were taken in a glass test tube and well mixed with a vortex, and dried under a nitrogen gas current so that it formed a thin film. The obtained mixture was dissolved in ethanol (200 μl), which was designated as Solution A. A PBS solution [a mixed solution of Na2HPO4 (30 mM), KH2PO4 (8.8 mM), NaCl (60 mM) and EDTA (pH 7.4; 0.67 mM); 4 ml] was taken in a tube and the reaction solution was vigorously stirred with a vortex under a nitrogen current. The above-described Solution A was gently injected into this mixture with a syringe and the reaction solution was vigorously stirred with a vortex for 5 minutes under a nitrogen current. Sodium cholate (200 mM; 0.38 ml) was added to the obtained mixture and the reaction solution was stirred for 2 minutes. ApoA-I protein (3 mg) was added to the obtained mixture and the reaction solution was stirred for 2 minutes. The obtained mixture was adjusted to 5 ml with the PBS solution and then dialyzed with the PBS solution. The obtained mixture was designated as the reconstituted HDL.
(2) Preparation of Acceptor Lipoprotein
NaBr was added to the plasma of a healthy person and the density of the mixture was adjusted to 1.019, and the mixture was subjected to density gradient centrifugation (40000 rpm, for 16 hours) to remove the fraction having a density of less than 1.019. NaBr was added to the obtained mixture and the density of the solution was adjusted to 1.063, and the solution was subjected to density gradient centrifugation (40000 rpm, 18 hours) to provide the fraction consisting of IDL (intermediate density lipoprotein) and LDL (1.019<density<1.063). The obtained fraction was dialyzed with the PBS solution. The obtained mixture was designated as the acceptor lipoprotein.
(3) Measurement of CETP Inhibition Activity
A recombinant human CETP protein (manufactured by Roar Biomedical Inc.; 4.5 ng), the acceptor lipoprotein described in (2) above (32.5 μg) and 5,5′-dithio-bis-(2-nitrobenzoic acid) (7 mM, 15 μl) were taken in a 96 well plate and the total amount of the mixture was adjusted to 48.5 μl with the PBS solution. The test compound [DMSO solution (concentration: 0.15, 0.5, 1.5, 5, 15, 50, 150 and 500 μM); 1.5 μl] was added to each well and the mixture was incubated in a thermostatic bath at 37° C. for 60 minutes. The reconstituted HDL (50 μl) described in (1) above was added to each well and the mixture was reacted in a thermostatic bath at 37° C. for 60 minutes. The 96 well plate was moved onto ice and a precipitation reagent [a mixed solution of magnesium chloride (60 mM) and 0.1% dextran sulfate[1/1(v/v)]; 15 μl] was added to each well, and then the mixture was allowed to stand on ice for 15 minutes. The reaction solution (80 μl) in each well was moved to a filter plate and centrifuged at 1500 rpm for 1 minute, and the filtrate which passed through the filter was designated as the HDL fraction and the radioactivity thereof was measured with a scintillation counter. The percentage decrease in radioactivity in the case where the test compound was added in comparison with that in case where the test compound was not added was designated as the percentage CETP inhibition. The IC50 value was calculated from the percentage CETP inhibition.

Chain of recombinant human CETP protein (P11597 18-493): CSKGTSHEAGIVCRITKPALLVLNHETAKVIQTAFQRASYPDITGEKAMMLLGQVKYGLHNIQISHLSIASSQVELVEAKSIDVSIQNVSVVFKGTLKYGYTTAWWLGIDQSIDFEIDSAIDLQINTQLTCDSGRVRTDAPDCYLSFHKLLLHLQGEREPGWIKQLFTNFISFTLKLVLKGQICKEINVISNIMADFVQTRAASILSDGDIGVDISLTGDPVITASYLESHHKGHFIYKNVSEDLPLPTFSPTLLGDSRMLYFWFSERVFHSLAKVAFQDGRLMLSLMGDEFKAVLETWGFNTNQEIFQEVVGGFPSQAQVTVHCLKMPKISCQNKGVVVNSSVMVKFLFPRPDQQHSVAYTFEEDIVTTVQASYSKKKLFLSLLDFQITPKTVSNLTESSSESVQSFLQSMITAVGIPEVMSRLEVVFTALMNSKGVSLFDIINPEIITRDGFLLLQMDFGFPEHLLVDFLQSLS

## CC1(C)Cc2nc(C3CCN(c4ncc(OCCCS(C)(=O)=O)cn4)CC3)c([C@@H](F)c3ccc(C(F)(F)F)cc3)c(C3CCC(F)(F)CC3)c2[C@@H](O)C1 [Example 18, (5S)-4-(4,4-Difluorocyclohexyl)-3-{(S)-fluoro[4-(trifluoromethyl)phenyl]methyl}-7,7-dimethyl-2-(1-{5-[3-(methylsulfonyl)propoxy]pyrimidin-2-yl}piperidin-4-yl)-5,6,7,8-tetrahydroquinolin-5-ol dihydrobromide]
dihydrobromide
  IC50: 18.9 nM

## CC1(C)Cc2nc(C3CCN(c4ncc(OCCCS(C)(=O)=O)cn4)CC3)c([C@@H](F)c3ccc(C(F)(F)F)cc3)c(C3CCC(F)(F)CC3)c2[C@@H](O)C1 [Example 19, (5S)-4-(4,4-Difluorocyclohexyl)-3-{(S)-fluoro[4-(trifluoromethyl)phenyl]methyl}-7,7-dimethyl-2-(1-{5-[3-(methylsulfonyl)propoxy]pyrimidin-2-yl}piperidin-4-yl)-5,6,7,8-tetrahydroquinolin-5-ol methanesulfonate]
  IC50: 22.9 nM

## CC1(C)Cc2nc(C3CCN(c4ncc(-c5cccc(C(=O)O)c5)cn4)CC3)c([C@@H](F)c3ccc(C(F)(F)F)cc3)c(C3CCC(F)(F)CC3)c2[C@@H](O)C1 [Example 20, (5S)-2-{1-[5-(3-Carboxyphenyl)pyrimidin-2-yl]piperidin-4-yl}-4-(4,4-difluorocyclohexyl)-3-{(S)-fluoro[4-(trifluoromethyl)phenyl]methyl}-7,7-dimethyl-5,6,7,8-tetrahydroquinolin-5-ol dihydrochloride]
dihydrochloride
  IC50: 289 nM

## CC1(C)Cc2nc(C3CCN(c4ncc(-c5cccc(C(=O)O)c5)cn4)CC3)c([C@@H](F)c3ccc(C(F)(F)F)cc3)c(C3CCC(F)(F)CC3)c2[C@@H](O)C1 [Example 21, (5S)-2-{1-[5-(3-Carboxyphenyl)pyrimidin-2-yl]piperidin-4-yl}-4-(4,4-difluorocyclohexyl)-3-{(S)-fluoro[4-(trifluoromethyl)phenyl]methyl}-7,7-dimethyl-5,6,7,8-tetrahydroquinolin-5-ol dihydrobromide]
dihydrobromide
  IC50: 279 nM
